`C[C@@H](OC(=O)Nc1ccc(-c2c(C#N)c3ccc(C(=O)N4CCSCC4)cc3n2C2CCC2)cc1)C1CC1` [Compound 2793] had a melting point of 148 to 151 °C.

The compound `COCCN(CCOC)C(=O)c1ccc2c(C#N)c(-c3ccc(NC(=O)O[C@H](C)C4CC4)cc3)n(C3CCC3)c2c1` [Compound 2794] displayed a melting point of 75 to 77 °C.

As to `C[C@@H](OC(=O)Nc1ccc(-c2c(C#N)c3cc(OCC4COCO4)ccc3n2C2CCC2)cc1)C(F)(F)F` (some centres unmarked) [Compound 2799], the melting point was 162 to 169 °C.

Take `CC(C)S(=O)(=O)Nc1ccc(-c2c(C#N)c3ccc(N4CCOCC4)cc3n2C2CCC2)cc1` [Compound 2801]: the melting point was found to be 220 °C.

`N#Cc1c(-c2ccc(NS(=O)(=O)C3CC3)cc2)n(C2CCC2)c2cc(N3CCOCC3)ccc12` [Compound 2802] showed a melting point of 222 to 224 °C.

In turn, `CCCS(=O)(=O)Nc1ccc(-c2c(C#N)c3ccc(N4CCOCC4)cc3n2C2CCC2)cc1` [Compound 2803] gave a melting point of 203 to 204 °C.

`N#Cc1c(-c2ccc(NC(=O)O[C@@H](c3ccccc3)C(F)(F)F)cc2)n(C2CCC2)c2cc(OCC3OCCO3)ccc12` [Compound 2805] had a melting point of 174 to 175 °C.

In turn, `N#Cc1c(-c2ccc(NC(=O)O[C@H](c3ccccc3)C(F)(F)F)cc2)n(C2CCC2)c2cc(OCC3OCCO3)ccc12` [Compound 2806] yielded a melting point of 175 to 176 °C.

Consider `CCNC(=O)Oc1ccc(-c2c(C#N)c3ccc(OC4CCOCC4)cc3n2C2CCC2)cc1` [Compound 2807], for which the melting point lay in the range of 205 to 207 °C.

For `CCCNC(=O)Oc1ccc(-c2c(C#N)c3ccc(OC4CCOCC4)cc3n2C2CCC2)cc1` [Compound 2808], the melting point is 153 to 154 °C.

With `CC(C)NC(=O)Oc1ccc(-c2c(C#N)c3ccc(OC4CCOCC4)cc3n2C2CCC2)cc1` [Compound 2809], the melting point lay in the range of 185 to 186 °C.

In turn, `CCCCNC(=O)Oc1ccc(-c2c(C#N)c3ccc(OC4CCOCC4)cc3n2C2CCC2)cc1` [Compound 2810] displayed a melting point of 137 to 138 °C.

Compound `N#Cc1c(-c2ccc(OC(=O)NC3CCCC3)cc2)n(C2CCC2)c2cc(OC3CCOCC3)ccc12` [Compound 2811] displayed a melting point of 168 to 169 °C.

With `N#Cc1c(-c2ccc(OC(=O)NC3CCCCC3)cc2)n(C2CCC2)c2cc(OC3CCOCC3)ccc12` [Compound 2812], the melting point was 187 to 188 °C.

Compound `N#Cc1c(-c2ccc(OC(=O)N3CCOCC3)cc2)n(C2CCC2)c2cc(OC3CCOCC3)ccc12` [Compound 2814] had a melting point of 178 to 179 °C.

In turn, `N#Cc1c(-c2ccc(OC(=O)N3CCCC3)cc2)n(C2CCC2)c2cc(OC3CCOCC3)ccc12` [Compound 2815] registered a melting point of 179 to 181 °C.

The compound `CCN(CC)C(=O)Oc1ccc(-c2c(C#N)c3ccc(OC4CCOCC4)cc3n2C2CCC2)cc1` [Compound 2816] showed a melting point of 137 to 138 °C.

With `CC(C)NC(=O)Nc1ccc(-c2c(C#N)c3cc(OC4COCOC4)ccc3n2C2CCC2)cc1` [Compound 2817], the melting point fell in the range of 179 to 181 °C.

`CC(C)Nc1ccc(-c2c(C#N)c3ccc(O[C@@H]4CCOC4)cc3n2C2CC2)cc1` [Compound 2818]: the melting point was in the range of 185 to 187 °C.

As for `C[C@@H](NC(=O)Nc1ccc(-c2c(C#N)c3ccc(Oc4ncccn4)cc3n2C2CCC2)cc1)c1ccc(F)cc1` [Compound 2819], the melting point is 150 °C (dec.).

Consider `C[C@H](NC(=O)Nc1ccc(-c2c(C#N)c3ccc(Oc4ncccn4)cc3n2C2CCC2)cc1)c1ccc(F)cc1` [Compound 2820], for which the melting point is 152 °C (dec.).

Regarding `COCCN(C)C(=O)c1ccc2c(C#N)c(-c3ccc(NS(=O)(=O)C4CC4)cc3)n(C3CCC3)c2c1` [Compound 2824], the melting point lay in the range of 201 to 203 °C.

As to `N#Cc1c(-c2ccc(NS(=O)(=O)C3CC3)cc2)n(C2CCC2)c2cc(C(=O)N3CCOCC3)ccc12` [Compound 2825], the melting point was in the range of 125 to 128 °C.

For the compound `N#Cc1c(-c2ccc(NS(=O)(=O)C3CC3)cc2)n(C2CCC2)c2cc(C(=O)N3CCSCC3)ccc12` [Compound 2826], the melting point is 205 to 207 °C.

Consider `C[C@@H](OC(=O)Nc1ccc(-c2c(C#N)c3ccc(OCCn4ccnc4)cc3n2C2CC2)cc1)c1ccc(F)cc1` [Compound 2828], for which the melting point was 225 to 230 °C.

For the compound `C[C@@H](OC(=O)Nc1ccc(-c2c(C#N)c3cc(N4CCOCC4)ccc3n2C2CCC2)cc1)c1ccc(F)cc1` [Compound 2829], the melting point lay in the range of 163 to 168 °C.

Consider `C[C@@H](OC(=O)Nc1ccc(-c2c(C#N)c3ccc(OCCCCn4cncn4)cc3n2C2CCC2)cc1)C(F)(F)F` [Compound 2830], for which the melting point lay in the range of 161 to 162 °C.

`C[C@@H](OC(=O)Nc1ccc(-c2c(C#N)c3cc(N4CCOCC4)ccc3n2C2CCC2)cc1)C(F)(F)F` [Compound 2832] returned a melting point of 197 to 202 °C.

With `CNS(=O)(=O)Nc1ccc(-c2c(C#N)c3ccc(OC4CCOCC4)cc3n2C2CCC2)cc1` [Compound 2833], the melting point was 218 to 220 °C.

Take `CCNS(=O)(=O)Nc1ccc(-c2c(C#N)c3ccc(OC4CCOCC4)cc3n2C2CCC2)cc1` [Compound 2834]: the melting point lay in the range of 199 to 201 °C.

`CC[C@H](C)NS(=O)(=O)Nc1ccc(-c2c(C#N)c3ccc(OC4CCOCC4)cc3n2C2CCC2)cc1` [Compound 2835] returned a melting point of 196 to 198 °C.

The compound `CCC(CC)NS(=O)(=O)Nc1ccc(-c2c(C#N)c3ccc(OC4CCOCC4)cc3n2C2CCC2)cc1` [Compound 2836] came in with a melting point of 193 to 195 °C.

`N#Cc1c(-c2ccc(NS(=O)(=O)NCC3CC3)cc2)n(C2CCC2)c2cc(OC3CCOCC3)ccc12` [Compound 2837] returned a melting point of 210 to 212 °C.

For `CCn1ccnc1CCOc1ccc2c(C#N)c(-c3ccc(NC(=O)OC(C)C)cc3)n(C3CCC3)c2c1` [Compound 2842], the melting point lay in the range of 203 to 212 °C.

With `COCCOc1ccc2c(C#N)c(-c3ccc(C(=O)NCCN4CCOCC4)cc3)n(C3CCC3)c2c1` [Compound 2844], the melting point is 169 to 170 °C.

On to `N#Cc1c(-c2ccc(NC(N)=S)cc2)n(C2CCC2)c2cc(OC3COCOC3)ccc12` [Compound 2846], for which the melting point lay within 202 to 204 °C.

The compound `CC(C)S(=O)(=O)Nc1ccc(-c2c(C#N)c3cc(Oc4ncccn4)ccc3n2C2CCC2)cc1` [Compound 2848] registered a melting point of 206 to 207 °C.

For the compound `CC(C)NC(=O)Nc1ccc(-c2c(C#N)c3cc(Oc4ncccn4)ccc3n2C2CCC2)cc1` [Compound 2851], the melting point lay within 140 to 145 °C.

Consider `C[C@@H](OC(=O)Nc1ccc(-c2c(C#N)c3ccc(Oc4ncccn4)cc3n2C2CCC2)cc1)C(F)(F)F` [Compound 2852], for which the melting point is 205 to 207 °C.

Regarding `C[C@@H](OC(=O)Nc1ccc(-c2c(C#N)c3ccc(O[C@@H]4CCOC4)cc3n2C2CCC2)cc1)C(F)(F)F` [Compound 2853], the melting point lay within 189 to 190 °C.

For the compound `COCCOc1ccc2c(C#N)c(-c3ccc(NC(=O)O[C@H](C)c4ccc(F)cc4)cc3)n(C(C)C)c2c1` [Compound 2854], the melting point was in the range of 113 to 116 °C.

In the case of `CC(C)NC(=O)Nc1ccc(-c2c(C#N)c3ccc(N4CCOCC4)cc3n2C2CC2)cc1` [Compound 2855], the melting point worked out at 264 °C.

`CC(C)OC(=O)Nc1ccc(-c2c(C#N)c3ccc(N4CCOCC4)cc3n2C2CC2)cc1` [Compound 2856] came in with a melting point of 220 to 227 °C.

Regarding `C[C@@H](OC(=O)Nc1ccc(-c2c(C#N)c3ccc(N4CCOCC4)cc3n2C2CC2)cc1)C1CC1` [Compound 2857], the melting point fell in the range of 176 to 179 °C.

`N#Cc1c(-c2ccc(NC(=O)NC3CCC3)cc2)n(C2CC2)c2cc(N3CCOCC3)ccc12` [Compound 2858] displayed a melting point of 230 to 232 °C.

For `CC(C)[C@H](C)OC(=O)Nc1ccc(-c2c(C#N)c3ccc(OC4COCOC4)cc3n2C2CCC2)cc1` [Compound 2859], the melting point fell in the range of 200 to 201 °C.

`N#Cc1c(-c2ccc(NC(=O)OCC3CC3)cc2)n(C2CCC2)c2cc(OC3COCOC3)ccc12` [Compound 2860] gave a melting point of 197 to 198 °C.

With `CC(OC(=O)Nc1ccc(-c2c(C#N)c3ccc(OC4COCOC4)cc3n2C2CCC2)cc1)C(C)(C)C` (centres unmarked) [Compound 2861], the melting point is 221 to 232 °C (dec.).

In turn, `CC(C)NC(=O)Nc1ccc(-c2c(C#N)c3ccc(N4CCOCC4)cc3n2C2CCC2)cc1` [Compound 2862] came in with a melting point of 234 to 235 °C.

`N#Cc1c(-c2ccc(NC(=O)NC3CCC3)cc2)n(C2CCC2)c2cc(N3CCOCC3)ccc12` [Compound 2863]: the melting point was 172 °C (dec.).

`C[C@@H](OC(=O)Nc1ccc(-c2c(C#N)c3ccc(N4CCOCC4)cc3n2C2CCC2)cc1)C(F)(F)F` [Compound 2864] returned a melting point of 220 to 222 °C.

Turning to `C[C@@H](OC(=O)Nc1ccc(-c2c(C#N)c3ccc(N4CCOCC4)cc3n2C2CCC2)cc1)c1ccc(F)cc1` [Compound 2865], the melting point is 163 to 165 °C.

With `C[C@@H](OC(=O)Nc1ccc(-c2c(C#N)c3ccc(N4CCOCC4)cc3n2C2CCC2)cc1)C1CC1` [Compound 2866], the melting point lay within 194 to 195 °C.

Consider `C[C@@H](OC(=O)Nc1ccc(-c2c(C#N)c3ccc(OC4CCOCC4)cc3n2C2CC2)cc1)c1ccc(F)cc1` [Compound 2869], for which the melting point was in the range of 108 to 111 °C.

Compound `CC(OC(=O)Nc1ccc(-c2c(C#N)c3ccc(OC4CCOCC4)cc3n2C2CCC2)cc1)C1CCC1` (centres unmarked) [Compound 2871] came in with a melting point of 198 to 199 °C.

`N#Cc1c(-c2ccc(NC(=O)OC3CCC3)cc2)n(C2CCC2)c2cc(OC3COCOC3)ccc12` [Compound 2872] returned a melting point of 215 to 216 °C.

The compound `CC(C)NC(=O)Nc1ccc(-c2c(C#N)c3ccc(OCCS(C)(=O)=O)cc3n2C2CCC2)cc1` [Compound 2873] showed a melting point of 170 to 180 °C.

On to `N#Cc1c(-c2ccc(NC(=O)NC3CCC3)cc2)n(CC2CC2)c2cc(N3CCOCC3)ccc12` [Compound 2876], for which the melting point lay in the range of 170 to 230 °C.

In turn, `N#Cc1c(-c2ccc(NS(=O)(=O)C3CC3)cc2)n(C2CC2)c2cc(N3CCOCC3)ccc12` [Compound 2877] returned a melting point of 241 to 243 °C.

The values are drawn from patent publication US7772271B2 (priority 2004, dated 2010).
